The source of these data is patent publication US10221426B2, “Constitutively active PYR/PYL receptor proteins for improving plant stress tolerance” (The Regents of the University of California, priority 2009, dated 2019).

Structures are written as SMILES.

The experiment deals with T1, PYL2-HAB1 (Arabidopsis thaliana, UniProt O80992).
T1 construct: BD-PYR/PYL fusion proteins were constructed in the same manner as for BD-PYR1 above; expressed in transfected cells; host or cells: yeast (Y190, as for BD-PYR1)
T1 sequence (O80992 1-190): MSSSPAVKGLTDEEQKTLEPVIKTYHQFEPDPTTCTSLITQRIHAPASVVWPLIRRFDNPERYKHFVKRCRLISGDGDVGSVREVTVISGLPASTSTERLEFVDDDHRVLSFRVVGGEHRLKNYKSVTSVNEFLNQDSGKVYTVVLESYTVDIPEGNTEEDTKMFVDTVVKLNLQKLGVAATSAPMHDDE
T1 sequence (Q9CAJ0 23-511 partner): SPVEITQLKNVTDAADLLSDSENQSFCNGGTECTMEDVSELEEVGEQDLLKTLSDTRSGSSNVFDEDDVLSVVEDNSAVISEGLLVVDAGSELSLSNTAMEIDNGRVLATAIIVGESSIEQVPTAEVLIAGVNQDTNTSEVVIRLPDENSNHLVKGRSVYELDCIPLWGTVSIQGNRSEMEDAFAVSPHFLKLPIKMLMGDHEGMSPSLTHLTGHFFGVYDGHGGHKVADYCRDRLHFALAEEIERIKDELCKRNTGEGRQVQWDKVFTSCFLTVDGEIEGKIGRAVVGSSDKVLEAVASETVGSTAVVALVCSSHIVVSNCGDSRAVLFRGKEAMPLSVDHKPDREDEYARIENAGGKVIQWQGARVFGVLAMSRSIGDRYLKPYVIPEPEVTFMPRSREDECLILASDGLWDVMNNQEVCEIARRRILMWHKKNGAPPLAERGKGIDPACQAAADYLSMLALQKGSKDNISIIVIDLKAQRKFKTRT
The experiment in a line: Yeast two-hybrid BD-PYL2 / AD-HAB1 interaction, X-gal stain. Type of experiment: cell-based. To be noted: 10 μM. As for the experimental part: Given that PYR1 is necessary for pyrabactin action and is a predicted ligand-binding protein, we hypothesized that pyrabactin agonizes ABA signaling by inducing a protein-protein interaction between PYR1 and a downstream effector. To test this, ˜2 million prey cDNA clones were screened against a PYR1 Y2H bait construct on media containing 10 μM pyrabactin. To create the PYR1 Y2H bait construct, the Pyr1 open reading frame was PCR amplified from genomic DNA and cloned to pGem-T easy vector (Promega). After sequence confirmation, the Pyr1 ORF was then cloned in-frame between EcoRI and SalI sites of the pBD-GAL4 Cam vector (Stratagene) and transformed into yeast strain Y190. For the screen, an etiolated seedling cDNA library (J. Kim, K., Harter, A., Theologis, Proc Natl Acad Sci USA 94, 11786 (Oct. 28, 1997)) (ABRC stock CD4-22) was used. The cDNA library was first converted from phage to plasmid DNA, yielding 7.6×10^7 transformants. Plasmid DNA prepared from library was then used to transform Y190 as described in the GAL4 Two-Hybrid system manual (Stratagene). For each screen, 40 μg of prey plasmid was transformed into 1 ml of competent Y190 cell harboring bait construct and then grown on SD agar plates lacking His, Leu, and Trp, but containing 15 mM 3-AT and 10 μM pyrabactin. After 4 days incubation at 30° C., well-grown colonies were rescued and interactions validated using filter lift assay or chloroform-agarose overlay method and X-Gal staining. This identified two pyrabactin-dependent hits which sequencing determined encoded cDNAs for the PP2C HAB1, a close relative of the well-characterized ABA response factor ABI1 (A. Saez et al., The Plant Journal 37, 354 (2004); N. Leonhardt et al., THE PLANT CELL 16, 596 (2004)). Next, Y2H strains expressing an AD-HAB1 fusion protein and a BD-PYR1 fusion protein were grown on plates and tested for interactions in response to various compounds, all at 10 μM except for epi-brassinolide (50 nM) and dimethyl sulfoxide (DMSO) (carrier solvent, 1%). […] Thus, PYR1 interacts with HAB1 in a (+)-ABA dependent fashion. […]

On to `CC1=CC(=O)CC(C)(C)[C@@]1(O)/C=C/C(C)=C\C(=O)O` [ABA, Abscisic acid], for which the “PYL2-HAB1 interaction by X-gal stain” value is given as “interact with HAB1 in an ABA-stimulated manner”. For `CC1=CC(=O)CC(C)(C)C1(O)/C=C/C(C)=C\C(=O)O` (single isomer, unassigned; (+)) [(+)-ABA] the value was “respond”.
